Patent US6737383B1, “Herbicidal oxadiazolidines” (priority 1999, dated 2004)

How the values were obtained:
blackgrass = assay: Test B pre/postemergence blackgrass; type: in vivo, Alopecurus myosuroides
Summary of the method: (§1)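 Test chemicals in a non-phytotoxic solvent mixture with surfactant were sprayed preemergence onto planted seeds and postemergence onto plants 2 to 18 cm tall (1- to 4-leaf stage). After twelve to sixteen days in a greenhouse, injury was visually rated against untreated controls from 0 (no effect) to 10 (complete control).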

surinam grass = assay: Test B pre/postemergence surinam grass; type: in vivo, Brachiaria decumbens
Summary of the method: as §1

cocklebur = assay: Test B pre/postemergence cocklebur; type: in vivo, Xanthium strumarium
Summary of the method: as §1

corn = assay: Test B pre/postemergence corn; type: in vivo, Zea mays
Summary of the method: as §1

crabgrass = assay: Test B pre/postemergence crabgrass; type: in vivo, Digitaria sanguinalis
Summary of the method: as §1

giant foxtail = assay: Test B pre/postemergence giant foxtail; type: in vivo, Setaria faberii
Summary of the method: as §1

morningglory = assay: Test B pre/postemergence morningglory; type: in vivo, Ipomoea hederacea
Summary of the method: as §1

pigweed = assay: Test B pre/postemergence pigweed; type: in vivo, Amaranthus retroflexus
Summary of the method: as §1

rape = assay: Test B pre/postemergence rape; type: in vivo, Brassica napus
Summary of the method: as §1

sugar beet = assay: Test B pre/postemergence sugar beet; type: in vivo, Beta vulgaris
Summary of the method: as §1

wheat = assay: Test B pre/postemergence wheat; type: in vivo, Triticum aestivum
Summary of the method: as §1

wild oat = assay: Test B pre/postemergence wild oat; type: in vivo, Avena fatua
Summary of the method: as §1

purple nutsedge = assay: Test B pre/postemergence purple nutsedge; type: in vivo, Cyperus rotundus
Summary of the method: as §1

rice = assay: Test B flood test rice; type: in vivo, Oryza sativa
Summary of the method: (§2)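 Plants were grown to the 2-leaf stage before treatment with test chemical, then held in a greenhouse for twelve to sixteen days. Injury was visually rated against untreated controls on a 0–10 scale, where 0 is no effect and 10 is complete control.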

bamyardgrass = assay: Test B flood test barnyardgrass; type: in vivo, Echinochloa crus-galli
Summary of the method: as §2

[1] = Postemergence, Rate 62 g/ha, scale 0 to 10, 0 is no effect, 10 is complete control
[2] = Postemergence, Rate 125 g/ha, scale of 0 to 10 where 0 is no effect and 10 is complete control
[3] = Postemergence, Rate 500 g/ha, scale of 0 to 10 where 0 is no effect and 10 is complete control
[4] = Preemergence, Rate 62 g/ha, scale of 0 to 10 where 0 is no effect and 10 is complete control
[5] = Preemergence, Rate 125 g/ha, scale of 0 to 10 where 0 is no effect and 10 is complete control
[6] = Preemergence, Rate 250 g/ha, scale 0 to 10 (0 no effect, 10 complete control)
[7] = Preemergence, Rate 500 g/ha, scale of 0 to 10 where 0 is no effect and 10 is complete control
[8] = Postemergence, Rate 250 g/ha, scale of 0 to 10, 0 is no effect, 10 is complete control
[9] = Rate 62 g/ha, flood test species, Pre-emergence, visual evaluation after twelve to sixteen days
[10] = Rate 125 g/ha, under heading Pre-emergence, flood test species, visual evaluation after twelve to sixteen days
[11] = Rate 250 g/ha, Pre-emergence (flood test species), scale 0 to 10, 0 is no effect, 10 is complete control
[12] = Rate 500 g/ha, Pre-emergence section of Table B, 0 to 10 scale (0 no effect, 10 complete control)

CC(C)N(C(=O)n1oc(=O)n(CC(=O)C2CCC2)c1=O)c1ccc(F)cc1 [Compound 640]
8: Plant response rating, Blackgrass (blackgrass; [7])
3: Crabgrass plant response rating (crabgrass; [8]) | Crabgrass plant response rating (crabgrass; [4]) | Crabgrass plant response rating (crabgrass; [5]) | Plant response rating, Morningglory (morningglory; [2]) | Plant response rating, Rape (rape; [6]) | Plant response rating, Wild oats (wild oat; [6])
7: Plant response rating, Redroot pigweed (pigweed; [7])
0: Plant response rating, Blackgrass (blackgrass; [1]) | Blackgrass plant response rating (blackgrass; [4]) | Blackgrass plant response rating (blackgrass; [5]) | Plant response rating, Blackgrass (blackgrass; [6]) | Plant response rating, B. signalgrass (surinam grass; [1]) | Plant response rating, B. signalgrass (surinam grass; [2]) | B. signalgrass plant response rating (surinam grass; [8]) | B. signalgrass plant response rating (surinam grass; [4]) | Plant response rating, Cocklebur (cocklebur; [1]) | Plant response rating, Cocklebur (cocklebur; [2]) | Cocklebur plant response rating (cocklebur; [4]) | Cocklebur plant response rating (cocklebur; [5]) | Plant response rating, Cocklebur (cocklebur; [6]) | Plant response rating, Cocklebur (cocklebur; [7]) | Plant response rating, Corn (corn; [1]) | Plant response rating, Corn (corn; [2]) | Corn plant response rating (corn; [8]) | Plant response rating, Corn (corn; [3]) | Corn plant response rating (corn; [4]) | Corn plant response rating (corn; [5]) | Plant response rating, Corn (corn; [6]) | Plant response rating, Corn (corn; [7]) | Plant response rating, Crabgrass (crabgrass; [1]) | Plant response rating, Giant foxtail (giant foxtail; [1]) | Plant response rating, Giant foxtail (giant foxtail; [2]) | Giant foxtail plant response rating (giant foxtail; [8]) | Plant response rating, Morningglory (morningglory; [1]) | Morningglory plant response rating (morningglory; [4]) | Morningglory plant response rating (morningglory; [5]) | Plant response rating, Morningglory (morningglory; [6]) | Plant response rating, Morningglory (morningglory; [7]) | Plant response rating, Redroot pigweed (pigweed; [1]) | Plant response rating, Redroot pigweed (pigweed; [2]) | Redroot pigweed plant response rating (pigweed; [4]) | Redroot pigweed plant response rating (pigweed; [5]) | Plant response rating, Rape (rape; [1]) | Plant response rating, Rape (rape; [2]) | Rape plant response rating (rape; [8]) | Plant response rating, Rape (rape; [3]) | Rape plant response rating (rape; [4]) | Rape plant response rating (rape; [5]) | Plant response rating, Sugarbeets (sugar beet; [1]) | Plant response rating, Sugarbeets (sugar beet; [2]) | Sugarbeets plant response rating (sugar beet; [8]) | Sugarbeets plant response rating (sugar beet; [4]) | Plant response rating, Wheat (wheat; [1]) | Plant response rating, Wheat (wheat; [2]) | Wheat plant response rating (wheat; [8]) | Wheat plant response rating (wheat; [4]) | Wheat plant response rating (wheat; [5]) | Plant response rating, Wheat (wheat; [6]) | Plant response rating, Wild oats (wild oat; [1]) | Plant response rating, Wild oats (wild oat; [2]) | Wild oats plant response rating (wild oat; [8]) | Wild oats plant response rating (wild oat; [4]) | Wild oats plant response rating (wild oat; [5]) | Plant response rating, Nutsedge (purple nutsedge; [1]) | Plant response rating, Nutsedge (purple nutsedge; [2]) | Nutsedge plant response rating (purple nutsedge; [8]) | Nutsedge plant response rating (purple nutsedge; [4]) | Nutsedge plant response rating (purple nutsedge; [5]) | Plant response rating, Nutsedge (purple nutsedge; [7]) | Plant response rating, Rice (0 to 10 scale, 0 is no effect, 10 is complete control) (rice; [9]) | Rice plant response rating (0 to 10 scale, 0 is no effect, 10 is complete control) (rice; [10]) | Rice plant response rating (rice; [11]) | Rice plant response rating (rice; [12]) | Plant response rating, Barnyardgrass (0 to 10 scale, 0 is no effect, 10 is complete control) (bamyardgrass; [9]) | Barnyardgrass plant response rating (0 to 10 scale, 0 is no effect, 10 is complete control) (bamyardgrass; [10]) | Barnyardgrass plant response rating (bamyardgrass; [11]) | Barnyardgrass plant response rating (bamyardgrass; [12])
5: Plant response rating, Blackgrass (blackgrass; [3]) | Plant response rating, Cocklebur (cocklebur; [3])
2: B. signalgrass plant response rating (surinam grass; [5]) | Cocklebur plant response rating (cocklebur; [8]) | Plant response rating, Crabgrass (crabgrass; [2]) | Plant response rating, Redroot pigweed (pigweed; [6]) | Sugarbeets plant response rating (sugar beet; [5]) | Plant response rating, Wheat (wheat; [7])
4: Plant response rating, Blackgrass (blackgrass; [2]) | Plant response rating, B. signalgrass (surinam grass; [3]) | Plant response rating, B. signalgrass (surinam grass; [6]) | Plant response rating, Giant foxtail (giant foxtail; [3]) | Redroot pigweed plant response rating (pigweed; [8])
9: Plant response rating, B. signalgrass (surinam grass; [7]) | Plant response rating, Crabgrass (crabgrass; [6]) | Giant foxtail plant response rating (giant foxtail; [4]) | Giant foxtail plant response rating (giant foxtail; [5]) | Plant response rating, Giant foxtail (giant foxtail; [7])
10: Plant response rating, Crabgrass (crabgrass; [7]) | Plant response rating, Giant foxtail (giant foxtail; [6])
6: Plant response rating, Crabgrass (crabgrass; [3]) | Morningglory plant response rating (morningglory; [8]) | Plant response rating, Morningglory (morningglory; [3]) | Plant response rating, Rape (rape; [7]) | Plant response rating, Sugarbeets (sugar beet; [6]) | Plant response rating, Sugarbeets (sugar beet; [7]) | Plant response rating, Wild oats (wild oat; [7])
